Each structure is given as a SMILES string. A value given as a limit tells only on which side of the number the result lay.

The assay concerns the target recombinant full length HPK-1 enzyme (Homo sapiens (Human), UniProt Q92918). Briefly: HPK-1 biochemical enzyme assay (ADP-Glo kinase inhibition). To be noted: recombinant full length HPK-1 6.8 nM, 10 μM ATP, 12.5 μM MBP, 30 mins at 25° C. The gist of the method:
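ADP-Glo readout of ADP formed after a 30 min, 25° C. reaction of 6.8 nM full-length HPK-1 with swine myelin basic protein (12.5 μM) and ATP (10 μM) in Tris pH 7.4 buffer with MgCl2, DTT and BSA. Ten compound concentrations tested; percent inhibition set against vehicle (0%) and no-enzyme (100%) controls gave IC50.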
Background: ADP-Glo first removes unused ATP, then detects ADP through luciferase.

Sequence of recombinant full length HPK-1 enzyme (Q92918 whole entry, species assumed): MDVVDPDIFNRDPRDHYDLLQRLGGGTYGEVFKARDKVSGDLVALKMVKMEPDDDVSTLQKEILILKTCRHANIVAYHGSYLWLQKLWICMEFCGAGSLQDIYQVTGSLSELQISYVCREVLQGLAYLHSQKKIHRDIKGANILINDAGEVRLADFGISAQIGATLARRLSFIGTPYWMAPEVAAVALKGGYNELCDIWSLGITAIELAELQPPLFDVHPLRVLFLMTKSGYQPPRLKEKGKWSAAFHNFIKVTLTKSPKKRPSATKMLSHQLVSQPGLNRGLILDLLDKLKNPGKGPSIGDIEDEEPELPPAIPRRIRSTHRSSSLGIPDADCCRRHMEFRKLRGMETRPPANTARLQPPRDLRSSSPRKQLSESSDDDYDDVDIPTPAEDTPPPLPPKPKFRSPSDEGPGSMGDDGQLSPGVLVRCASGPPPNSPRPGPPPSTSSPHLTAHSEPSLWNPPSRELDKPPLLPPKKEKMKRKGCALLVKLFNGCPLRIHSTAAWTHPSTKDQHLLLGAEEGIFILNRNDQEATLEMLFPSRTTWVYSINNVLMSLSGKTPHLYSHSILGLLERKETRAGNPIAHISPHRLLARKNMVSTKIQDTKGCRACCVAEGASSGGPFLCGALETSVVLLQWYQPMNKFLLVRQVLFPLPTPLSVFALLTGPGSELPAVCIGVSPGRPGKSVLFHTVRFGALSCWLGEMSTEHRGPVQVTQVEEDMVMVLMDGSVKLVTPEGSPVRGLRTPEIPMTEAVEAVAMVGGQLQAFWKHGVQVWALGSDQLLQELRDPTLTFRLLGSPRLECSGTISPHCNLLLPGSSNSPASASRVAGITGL

For the compound `COCCN1CCC(c2ccc(NC(=O)c3c(Nc4cnc5c(c4C)NCCO5)cc[nH]c3=O)cc2F)CC1` [Example 276, N-(3-fluoro-4-(1-(2-methoxyethyl)piperidin-4-yl)phenyl)-4-((8-methyl-2,3-dihydro-1H-pyrido[2,3-b][1,4]oxazin-7-yl)amino)-2-oxo-1,2-dihydropyridine-3-carboxamide], the IC50 was at most 10 nM.
In the case of `CCN1CCN(c2c(F)cc(NC(=O)c3c(Nc4cnc5c(c4C)NCCO5)cc[nH]c3=O)cc2Cl)CC1` [Example 389, N-(3-Chloro-4-(4-ethylpiperazin-1-yl)-5-fluorophenyl)-4-((8-methyl-2,3-dihydro-1H-pyrido[2,3-b][1,4]oxazin-7-yl)amino)-2-oxo-1,2-dihydropyridine-3-carboxamide], the IC50 is at most 10 nM.
Take `CCN1CCN(c2ccc(NC(=O)c3c(Nc4cnc5c(c4C)NCC(C)O5)cc[nH]c3=O)cc2F)CC1` (stereo not drawn) [Example 385, 4-((3,8-dimethyl-2,3-dihydro-1H-pyrido[2,3-b][1,4]oxazin-7-yl)amino)-N-(4-(4-ethylpiperazin-1-yl)-3-fluorophenyl)-2-oxo-1,2-dihydropyridine-3-carboxamide]: the IC50 lay within 10 to 100 nM.

What is called IC50 is the concentration that inhibits the measured activity by half.

These data come from US20250282794A1 (CURADEV PHARMA LTD, priority 2022, published 2025).
